Reference: patent US20140120075A1, “Nanozyme Compositions and Methods of Synthesis and Use Thereof” (Board of Regents of the University of Nebraska, priority 2011, published 2014)

How the values were obtained:
[1] = molecular target: Catalase (from bovine liver), native (nC) (Bos taurus, UniProt P00432); settings: 50 mM phosphate buffer pH 7.4
Experimental: (§1) SOD1 (from bovine erythrocytes), hydrogen peroxide (H2O2), 2,3,5-triphenyltetrazolium chloride (TTC) and copper standards for Inductively Coupled Plasma Mass Spectroscopy (ICP-MS)—TraceCERT®, 1000 mg/L Cu in nitric acid) were from Sigma-Aldrich (St. Louis, Mo.). Catalase (from bovine liver) was from Calbiochem (Gibbstown, N.J.). PEG-pLL50 was from Alamanda Polymers™ (Huntsville, Ala.). […] Cross-linkers 3,3′-dithiobis(sulfosuccinimidylpropionate) (DTSSP) and bis(sulfosuccinimidyl)suberate (BS^3) were from Thermo Fisher Scientific (Rockford, Ill.). NAP™ desalting columns and HiPrep 16/60 Sephacryl S-400 HR column were from GE Healthcare (Piscataway, N.J.). Criterion Tris-HCl gels and Precision Plus Protein™ All Blue Standards were from Bio-Rad (Hercules, Calif.). SYPRO® Ruby protein gel stain and cell culture reagents were purchased from Invitrogen (Carlsbad, Calif.). CellTiter 96® AQueous One Solution Cell Proliferation Assay (MTS) was from Promega (Madison, Wis.). LumiMax Superoxide Anion Detection Kit was from Agilent Technologies, Inc. (Santa Clara, Calif.). All other reagents and supplies were from Fisher Scientific (Pittsburgh, Pa.) unless noted otherwise.

[2] = molecular target: Catalase (from bovine liver), DTSSP cross-linked cl-nanozyme with PEG-pLL50, purified (C2p) (Bos taurus, UniProt P00432)
Sequence of Catalase (from bovine liver), DTSSP cross-linked cl-nanozyme with PEG-pLL50, purified (C2p) (P00432 whole entry): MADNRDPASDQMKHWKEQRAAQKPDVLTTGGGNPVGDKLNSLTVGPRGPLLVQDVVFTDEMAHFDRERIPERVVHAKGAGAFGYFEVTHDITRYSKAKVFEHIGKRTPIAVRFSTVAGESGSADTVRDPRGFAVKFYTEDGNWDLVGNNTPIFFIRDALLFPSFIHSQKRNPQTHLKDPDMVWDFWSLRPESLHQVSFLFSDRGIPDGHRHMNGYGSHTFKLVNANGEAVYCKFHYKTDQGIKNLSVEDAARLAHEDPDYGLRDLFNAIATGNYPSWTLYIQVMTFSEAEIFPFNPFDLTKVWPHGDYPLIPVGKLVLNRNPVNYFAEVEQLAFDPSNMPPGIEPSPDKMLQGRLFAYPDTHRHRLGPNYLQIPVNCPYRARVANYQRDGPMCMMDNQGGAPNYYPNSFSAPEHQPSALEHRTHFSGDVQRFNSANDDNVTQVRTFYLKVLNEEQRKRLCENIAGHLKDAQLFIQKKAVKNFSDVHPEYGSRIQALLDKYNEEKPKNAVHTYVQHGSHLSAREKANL
Experimental: as §1
(§2) Enzyme and polymer stock solutions were prepared in 10 mM HEPES (pH 7.4) and 10 mM HEPES-buffered saline (HBS; pH 7.4) for SOD1 and catalase, respectively. Non-cross-linked BICs (Z+/−=2) were prepared as described (Klyachko et al. (2012) Nanomed. Nanotechnol. Biol. Med., 8:119-129). Targeted degree of cross-linking was defined as the molar ratio between cross-linker (DTSSP/BS^3) and pLL amines. Precalculated amount of the respective cross-linker was dissolved in the reaction buffer (HEPES/HBS), quickly added to BICs, and the reaction mixture was briefly vortexed and incubated for 2 hours on ice. Unreacted crosslinker was desalted using NAP™ columns following manufacturer's instructions. Cl-Nanozymes were purified using size exclusion chromatography (SEC) (small/intermediate scale) or centrifugal filtration (large scale). SEC was carried out using an ÄKTA™ Fast Protein Liquid Chromatography (FPLC) (Amersham Biosciences, Piscataway, N.J.) system. DTSSP cl-nanozymes were lyophilized overnight, reconstituted in deionized water (DW), loaded onto a HiPrep 16/60 Sephacryl™ S-400 HR column and eluted using 10 mM HBS (pH 7.4) at a flow rate of 0.5 mL/minute. Prior to each experiment, the column was pre-conditioned with free block copolymer (PEG-pLL50) to minimize non-specific adsorption of the cl-nanozymes (Boeckle et al. (2004) J. Gene Med., 6:1102-1111). Fractions spanning each distinct peak were pooled, concentrated using Amicon® Ultra-4 Centrifugal Filter Units with a molecular weight cutoff (MWCO) of 3000 Da and desalted using NAP™ columns as needed. Protein concentration was determined using Micro BCA™ Protein Assay Kit. In large-scale preparations, clnanozymes were purified by centrifugal filtration using Macrosep™ Centrifugal Device (Pall Life Sciences, Ann Arbor, Mich.) with a MWCO of either 100 kDa (for SOD1) or 1000 kDa (for catalase). Briefly, unreacted cross-linker in cross-linked BICs was desalted using NAP™ columns and eluate was collected in 10 mM HEPES containing 0.3 M NaCl (pH 7.4). Samples were loaded onto the centrifugal device and concentrated to 10% original volume by centrifuging at 4500 RPM. Two rounds of purification were done in 10 mM HEPES buffer containing 0.3 M NaCl (pH 7.4) and the third round was done in 10 mM HEPES buffer (pH 7.4). […]

[3] = molecular target: Catalase (from bovine liver), DTSSP cross-linked cl-nanozyme with PEG-pLL50, non-purified (C2) (Bos taurus, UniProt P00432)
Sequence of Catalase (from bovine liver), DTSSP cross-linked cl-nanozyme with PEG-pLL50, non-purified (C2) (P00432 whole entry): as above
Experimental: as §1, §2

Sequence of Catalase (from bovine liver), native (nC) (P00432 whole entry): as above

OO [H2O2, hydrogen peroxide]
Kcat/Km [1]: 1.5e+07 M⁻¹ s⁻¹ | Kcat/Km ([2]; 50 mM phosphate buffer pH 7.4, C2p): 7.75e+06 M⁻¹ s⁻¹ | catalytic efficiency (kcat/Km), per cent lower than nC ([2]; purified cl-nanozyme (C2p) compared to native enzyme (nC)): ca. 48% | catalytic efficiency (kcat/Km), per cent lower than C2 ([2]; purified cl-nanozyme (C2p) compared to non-purified (C2)): ~53% | Kcat/Km ([3]; 50 mM phosphate buffer pH 7.4, C2): 1.66e+07 M⁻¹ s⁻¹ | increase in Km value ([3]; non-purified cl-nanozyme (C2) compared to native catalase (nC)): ca. 1.8 fold
